Source: patent publication US12297190B2, “Modulators of STING (stimulator of interferon genes)” (PFIZER INC., priority 2019, dated 2025)
Where a name gives a salt, the structure may show the parent alone.

What was measured:
R232-STING = R232-STING (Homo sapiens, UniProt Q86WV6, H232R); assay: biochemical
STING [1] = target: T1, STING (Homo sapiens, UniProt Q86WV6, G230A/H232R/R293Q/R71H); assay: Phosphorylation of IRF3: THP-1 cell ELISA; format: cell-based; details: THP-1 cells, 3 hours incubation, phospho-IRF3 ELISA; read-out: THP-1 CELL P-IRF3 EC50
T1 construct: host or cells: THP-1 and THP-1 Lucia ISG cells
Method: Phosphorylation of IRF3: THP-1 Cell ELISA
STING activation results in recruitment of TBK1 and phosphorylation of IRF3 transcription factor before induction of type I interferons. THP-1 cells (InvivoGen) were grown in RPMI media plus 2 mM L-glutamine, 10% fetal bovine serum, and 0.5% Pen-Strep. 10^4 cells were seeded in 96-well plates and incubated overnight 37° C., 5% CO2. Compounds serial diluted compounds in media (final 0.5% DMSO) were added to the cells and incubated for an additional 3 hours. After incubation, the plates were centrifuged at 2000 rpm for 5 min. The cells were then lysed in 100 μl RIPA buffer and vortexed for 30 minutes at room temperature. 25 μl of lysate was then transferred to clear polystyrene High Bind plates that had been previously coated with mouse anti-human IRF-3 capture antibody (BD Pharmigen), and allowed to incubate at 4° C. for 16 hours. The plates were then washed and incubated with rabbit anti-phospho-IRF3 detection antibody (Cell Signaling Technologies) for 1.5 hours at room temperature. Finally, an HRP-linked secondary antibody (Cell Signaling Technologies) was added for 30 min before the Glo Substrate Reagent (R&D Systems) was used generate the luminescent signal. The signal was measured using a Perkin-Elmer Envision microplate reader. Data were normalized to “% effect” with a positive control STING agonist that was known to maximize the phosphorylated IRF3 signal and the negative control was DMSO.

STING [2] = target: T1, STING; assay: Interferon-β induction: THP-1 Lucia ISG reporter cell line; format: cell-based; details: THP-1 Lucia ISG cells, 24 hours incubation, luciferase reporter; read-out: THP-1 Lucia ISG Cells IFN-β EC50
Method: Interferon-β Induction: THP-1 ISG Reporter Cell Line
THP-1 Lucia™ ISG cells (InvivoGen) express the secreted luciferase “Lucia” reporter gene under the control of an IRF-inducible composite promotor comprised of five interferon response elements. THP-1 Lucia™ ISG cells were grown in RPMI media plus 2 mM L-glutamine, 10% fetal bovine serum, and 0.5% Pen-Strep. Hygromycin B and Zeocin were present to maintain stable transfection. 10^4 cells were seeded in 96-well plates and incubated overnight 37° C., 5% CO2. 50 μL of serial diluted compounds in media (final 0.5% DMSO) was and incubated for an additional 24 hours. After incubation, the plates were centrifuged at 2000 rpm for 10 min. 50 μl of cell culture supernatant of each well was transferred to a white, opaque 96-well plate. One pouch of QUANTI-Luc™ (InvivoGen) powder was prepared in 25 mL of endotoxin-free water and 100 μL of prepared warm QUANTI-Luc solution were added to each well containing the supernatant. The luminescence signal was measured using a Perkin-Elmer Envision microplate reader. Data were normalized to “% effect” with a positive control STING agonist that was known to maximize the luciferase signal and the negative control DMSO.

T1 sequence (Q86WV6 whole entry R71H/G230A/H232R/R293Q): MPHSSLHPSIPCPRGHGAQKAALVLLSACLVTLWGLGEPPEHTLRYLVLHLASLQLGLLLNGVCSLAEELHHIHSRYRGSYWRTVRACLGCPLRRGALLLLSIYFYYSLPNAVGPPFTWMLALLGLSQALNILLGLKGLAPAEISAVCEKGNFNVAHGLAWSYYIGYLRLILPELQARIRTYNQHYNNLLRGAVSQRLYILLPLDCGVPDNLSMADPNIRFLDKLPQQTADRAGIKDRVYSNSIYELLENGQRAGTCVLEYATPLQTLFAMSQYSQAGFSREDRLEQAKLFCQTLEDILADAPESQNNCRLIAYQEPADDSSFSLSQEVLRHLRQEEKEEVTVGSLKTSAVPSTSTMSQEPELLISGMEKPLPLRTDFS
Sequence of R232-STING (Q86WV6 155-341 H232R): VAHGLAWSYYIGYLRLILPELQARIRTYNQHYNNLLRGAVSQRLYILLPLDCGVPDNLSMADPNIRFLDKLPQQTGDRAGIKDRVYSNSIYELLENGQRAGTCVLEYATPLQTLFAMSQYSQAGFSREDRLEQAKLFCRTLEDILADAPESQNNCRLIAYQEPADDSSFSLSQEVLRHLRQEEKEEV

| SMILES | Ki (R232-STING) | EC50 (STING [1]) | EC50 (STING [2]) |
| --- | --- | --- | --- |
| CCn1nc(C)cc1-c1nc(-c2nc(C(N)=O)cc3c2cnn3C)c(C(C)N)s1 (racemic) [Compound W-7, 1-(4-(6-carbamoyl-1-methyl-1H-pyrazolo[4,3-c]pyridin-4-yl)-2-(1-ethyl-3-methyl-1H-pyrazol-5-yl)thiazol-5-yl)ethan-1-aminium trifluoroacetate] | 33.4 nM | 1500 nM | 1870 nM |
| CCn1nc(C)cc1-c1nnc(-c2cc(C(N)=O)cc3c2cnn3CC[C@H](C)C2CCNCC2)[nH]1 (racemic) [YY18, 4-[5-(1-ethyl-3-methyl-1H-pyrazol-5-yl)-4H-1,2,4-triazol-3-yl]-1-[(3S)-3-(piperidin-4-yl)butyl]-1H-indazole-6-carboxamide] | 437 nM | > 100000 nM | > 100000 nM |
| CCn1nc(C)cc1-c1nc(-c2nc(C(N)=O)cc3c2cnn3C)c(C(C)N)s1 (single isomer, unassigned) [Example W02, 4-[5-(1-aminoethyl)-2-(1-ethyl-3-methyl-1H-pyrazol-5-yl)-1,3-thiazol-4-yl]-1-methyl-1H-pyrazolo[4,3-c]pyridine-6-carboxamide] | 67.5 nM | 2320 nM | 2460 nM |
| CCn1nc(C)cc1-c1n[nH]c(-c2cc(C(N)=O)cc3c2cnn3C)n1 [Example A01, 4-[3-(1-ethyl-3-methyl-1H-pyrazol-5-yl)-1H-1,2,4-triazol-5-yl]-1-methyl-1H-indazole-6-carboxamide] | 25.1 nM | 920 nM | 1020 nM |
| CCn1nc(C)cc1-c1n[nH]c(-c2cc(C(N)=O)cc3c2ccn3C)n1 [Example A02, 4-[3-(1-ethyl-3-methyl-1H-pyrazol-5-yl)-1H-1,2,4-triazol-5-yl]-1-methyl-1H-indole-6-carboxamide] | 29.4 nM | 6680 nM | 7480 nM |
| CCn1nc(C)cc1-c1nc(-c2nc(C(N)=O)cc3c2cnn3C)c(CNC)s1 [Example AA01, 4-{2-(1-ethyl-3-methyl-1H-pyrazol-5-yl)-5-[(methylamino)methyl]-1,3-thiazol-4-yl}-1-methyl-1H-pyrazolo[4,3-c]pyridine-6-carboxamide] | 134 nM | 11800 nM | 13200 nM |
| CCn1nc(CO)cc1-c1nc(-c2nc(C(N)=O)cc3c2cnn3C)n(C)n1 [Example AB01, 4-{3-[1-ethyl-3-(hydroxymethyl)-1H-pyrazol-5-yl]-1-methyl-1H-1,2,4-triazol-5-yl}-1-methyl-1H-pyrazolo[4,3-c]pyridine-6-carboxamide] | 23.6 nM | 3750 nM | 5010 nM |
| Cc1cc(-c2nc(-c3nc(C(N)=O)cc4c3cnn4C)n(C)n2)n(CCCO)n1 [Example AD01, 4-{3-[1-(3-hydroxypropyl)-3-methyl-1H-pyrazol-5-yl]-1-methyl-1H-1,2,4-triazol-5-yl}-1-methyl-1H-pyrazolo[4,3-c]pyridine-6-carboxamide] | 2.2 nM | 80 nM | 80 nM |
| CCn1nc(C)c(O)c1-c1nc(-c2nc(C(N)=O)cc3c2cnn3C)co1 [Example AE01, 4-[2-(1-ethyl-4-hydroxy-3-methyl-1H-pyrazol-5-yl)-1,3-oxazol-4-yl]-1-methyl-1H-pyrazolo[4,3-c]pyridine-6-carboxamide] | 2.6 nM | 200 nM | 160 nM |
| Cc1cc(-c2nc(-c3nc(C(N)=O)cc4c3cnn4C)c(CN)s2)n(CCCO)n1 [Example AF01, 4-{5-(aminomethyl)-2-[1-(3-hydroxypropyl)-3-methyl-1H-pyrazol-5-yl]-1,3-thiazol-4-yl}-1-methyl-1H-pyrazolo[4,3-c]pyridine-6-carboxamide] | 138 nM | 5950 nM | 5220 nM |
| Cc1nn(CCCO)c(-c2nc(-c3nc(C(N)=O)cc4c3cnn4C)c(CN)s2)c1O [Example AF02] | 11.5 nM | 2260 nM | 1950 nM |
| CCn1nc(C)cc1-c1nc(-c2cc(C(N)=O)cc3c2cnn3C)nn1COP(=O)(O)O [Example N01, [3-(6-carbamoyl-1-methyl-1H-indazol-4-yl)-5-(1-ethyl-3-methyl-1H-pyrazol-5-yl)-1H-1,2,4-triazol-1-yl]methyl dihydrogenphosphate] |  | ≥ 100000 nM | 76900 nM |
| CCn1nc(C)cc1-c1n[nH]c(-c2cc(C(N)=O)cc3c2cnn3CCN2CCOC[C@H]2CO)n1 [ZZZ120, 4-[3-(1-ethyl-3-methyl-1H-pyrazol-5-yl)-1H-1,2,4-triazol-5-yl]-1-{2-[(3R)-3-(hydroxymethyl)morpholin-4-yl]ethyl}-1H-indazole-6-carboxamide] | 905 nM |  |  |
| CCn1nc(CN)cc1-c1nc(-c2nc(C(N)=O)cc3c2cnn3C)n(C)n1 [ZZZ121, 4-{3-[3-(aminomethyl)-1-ethyl-1H-pyrazol-5-yl]-1-methyl-1H-1,2,4-triazol-5-yl}-1-methyl-1H-pyrazolo[4,3-c]pyridine-6-carboxamide] | > 990 nM |  |  |
| CCn1nc(CO)cc1-c1cnc(-c2cc(C(N)=O)cc3c2cnn3C)[nH]1 [ZZZ122, 4-{5-[1-ethyl-3-(hydroxymethyl)-1H-pyrazol-5-yl]-1H-imidazol-2-yl}-1-methyl-1H-indazole-6-carboxamide] | > 900 nM |  |  |
| CCn1nc(C)c(O)c1-c1cnc(-c2cc(C(N)=O)cc3c2cnn3C)[nH]1 [ZZZ123, 4-[5-(1-ethyl-4-hydroxy-3-methyl-1H-pyrazol-5-yl)-1H-imidazol-2-yl]-1-methyl-1H-indazole-6-carboxamide] | 63.3 nM |  |  |
| CCn1nc(C(=O)O)cc1-c1cnc(-c2cc(C(N)=O)cc3c2cnn3C)[nH]1 [ZZZ124, 5-[2-(6-carbamoyl-1-methyl-1H-indazol-4-yl)-1H-imidazol-5-yl]-1-ethyl-1H-pyrazole-3-carboxylic acid] | > 90 nM |  |  |
| CCn1nc(C)cc1-c1nc(-c2nc(C(N)=O)cc3c2cnn3C)n(CCN(C)C)n1 [ZZZ125, 4-{1-[2-(dimethylamino)ethyl]-3-(1-ethyl-3-methyl-1H-pyrazol-5-yl)-1H-1,2,4-triazol-5-yl}-1-methyl-1H-pyrazolo[4,3-c]pyridine-6-carboxamide] | 512 nM |  |  |
| CCn1nc(C)cc1-c1nc(-c2nc(C(N)=O)cc3c2cnn3C)n(CCNC)n1 [ZZZ126, 4-{3-(1-ethyl-3-methyl-1H-pyrazol-5-yl)-1-[2-(methylamino)ethyl]-1H-1,2,4-triazol-5-yl}-1-methyl-1H-pyrazolo[4,3-c]pyridine-6-carboxamide] | > 990 nM |  |  |
| CCn1nc(C)c(F)c1-c1nnc(-c2cc(C(N)=O)cn3cncc23)[nH]1 [ZZZ128, 8-[5-(1-ethyl-4-fluoro-3-methyl-1H-pyrazol-5-yl)-4H-1,2,4-triazol-3-yl]imidazo[1,5-a]pyridine-6-carboxamide] | 556 nM |  |  |
| CCn1nc(C)c(F)c1-c1nc(-c2cc(C(N)=O)cc3c2cnn3C)n(C)n1 [ZZZ129, 4-[3-(1-ethyl-4-fluoro-3-methyl-1H-pyrazol-5-yl)-1-methyl-1H-1,2,4-triazol-5-yl]-1-methyl-1H-indazole-6-carboxamide] | 952 nM |  |  |
| CCn1nc(C)c(F)c1-c1nc(-c2c(F)c(C(N)=O)cc3c2cnn3C)n(C)n1 [ZZZ130, 4-[3-(1-ethyl-4-fluoro-3-methyl-1H-pyrazol-5-yl)-1-methyl-1H-1,2,4-triazol-5-yl]-5-fluoro-1-methyl-1H-indazole-6-carboxamide] | > 990 nM |  |  |
| CCn1nc(C)cc1-c1nc(C(=O)O)c(-c2nc(C(N)=O)cc3c2cnn3C)o1 [ZZZ131, 5-(6-carbamoyl-1-methyl-1H-pyrazolo[4,3-c]pyridin-4-yl)-2-(1-ethyl-3-methyl-1H-pyrazol-5-yl)-1,3-oxazole-4-carboxylic acid] | > 990 nM |  |  |
| Cc1cc(-c2n[nH]c(-c3nc(C(N)=O)cc4c3cnn4C)n2)n(CCCN)n1 [ZZZ132, 4-{3-[1-(3-aminopropyl)-3-methyl-1H-pyrazol-5-yl]-1H-1,2,4-triazol-5-yl}-1-methyl-1H-pyrazolo[4,3-c]pyridine-6-carboxamide] | > 990 nM |  |  |
